The source made the active and inactive calls. The rule behind the calls is not given here.
How the values were obtained:
INS1 [1] = experiment: Inhibition of ASK1 in rat INS1 ([…]) cells assessed as downregulation of streptozotocin-induced JNK phosphorylation at 0.3 to 10 uM incubated for 1 hr prior to streptozotocin induction measured after 1 hr by Western blot analysis; format: cell-based
INS1 [2] = experiment: Inhibition of ASK1 in rat INS1 ([…]) cells assessed as downregulation of streptozotocin-induced p38 phosphorylation incubated for 1 hr prior to streptozotocin induction measured after 1 hr by Western blot analysis; format: cell-based
physchem = settings: buffer, pH 7.4
Description: Lipophilicity, log D of the compound at pH 7.4

[3] = molecular target: T1, Mitogen-activated protein kinase kinase kinase 5 (Homo sapiens, UniProt Q99683); experiment: Competitive inhibition of human recombinant N-terminal FLAG-tagged ASK1 expressed in baculovirus infected […] cells after 60 mins by scintillation counting analysis in presence of [gamma-33P]ATP
T1 sequence (Q99683 whole entry): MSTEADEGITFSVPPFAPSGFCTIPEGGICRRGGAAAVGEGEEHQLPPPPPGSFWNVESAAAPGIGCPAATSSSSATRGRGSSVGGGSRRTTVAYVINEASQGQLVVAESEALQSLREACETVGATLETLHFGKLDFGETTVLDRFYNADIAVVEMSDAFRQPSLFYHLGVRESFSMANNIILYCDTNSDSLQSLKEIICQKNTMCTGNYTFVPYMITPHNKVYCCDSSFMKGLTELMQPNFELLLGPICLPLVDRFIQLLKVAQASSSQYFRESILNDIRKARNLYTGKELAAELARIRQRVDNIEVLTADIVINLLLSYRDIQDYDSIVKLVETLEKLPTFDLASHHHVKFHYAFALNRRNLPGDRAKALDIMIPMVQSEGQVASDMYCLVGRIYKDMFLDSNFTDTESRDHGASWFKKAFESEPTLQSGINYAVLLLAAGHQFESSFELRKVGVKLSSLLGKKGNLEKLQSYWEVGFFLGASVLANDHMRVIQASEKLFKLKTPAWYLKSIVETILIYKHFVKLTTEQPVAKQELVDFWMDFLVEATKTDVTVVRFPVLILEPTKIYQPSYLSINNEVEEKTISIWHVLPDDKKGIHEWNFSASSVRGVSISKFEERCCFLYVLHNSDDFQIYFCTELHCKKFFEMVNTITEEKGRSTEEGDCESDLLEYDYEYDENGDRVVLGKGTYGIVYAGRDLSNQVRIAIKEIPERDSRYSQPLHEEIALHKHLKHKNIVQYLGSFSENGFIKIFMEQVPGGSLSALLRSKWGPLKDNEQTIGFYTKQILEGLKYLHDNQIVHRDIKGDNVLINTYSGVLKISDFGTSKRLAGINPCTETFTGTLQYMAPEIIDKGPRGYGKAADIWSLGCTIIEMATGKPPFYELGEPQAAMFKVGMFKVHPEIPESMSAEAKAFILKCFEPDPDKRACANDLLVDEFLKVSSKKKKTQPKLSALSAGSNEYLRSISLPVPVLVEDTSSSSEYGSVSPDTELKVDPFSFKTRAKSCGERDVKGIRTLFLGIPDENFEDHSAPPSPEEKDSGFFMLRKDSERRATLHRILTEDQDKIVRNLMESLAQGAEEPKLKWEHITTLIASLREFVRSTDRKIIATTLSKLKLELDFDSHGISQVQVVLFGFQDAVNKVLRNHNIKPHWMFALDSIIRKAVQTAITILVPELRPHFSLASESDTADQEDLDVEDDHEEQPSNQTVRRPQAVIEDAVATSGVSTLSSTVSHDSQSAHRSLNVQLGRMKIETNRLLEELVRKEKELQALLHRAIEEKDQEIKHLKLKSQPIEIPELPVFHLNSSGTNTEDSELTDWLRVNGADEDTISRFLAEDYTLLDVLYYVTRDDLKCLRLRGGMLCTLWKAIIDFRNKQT

[4] = molecular target: Serine/threonine-protein kinase B-raf (Homo sapiens, UniProt P15056); experiment: Inhibition of BRAF
Sequence of Serine/threonine-protein kinase B-raf (P15056 whole entry): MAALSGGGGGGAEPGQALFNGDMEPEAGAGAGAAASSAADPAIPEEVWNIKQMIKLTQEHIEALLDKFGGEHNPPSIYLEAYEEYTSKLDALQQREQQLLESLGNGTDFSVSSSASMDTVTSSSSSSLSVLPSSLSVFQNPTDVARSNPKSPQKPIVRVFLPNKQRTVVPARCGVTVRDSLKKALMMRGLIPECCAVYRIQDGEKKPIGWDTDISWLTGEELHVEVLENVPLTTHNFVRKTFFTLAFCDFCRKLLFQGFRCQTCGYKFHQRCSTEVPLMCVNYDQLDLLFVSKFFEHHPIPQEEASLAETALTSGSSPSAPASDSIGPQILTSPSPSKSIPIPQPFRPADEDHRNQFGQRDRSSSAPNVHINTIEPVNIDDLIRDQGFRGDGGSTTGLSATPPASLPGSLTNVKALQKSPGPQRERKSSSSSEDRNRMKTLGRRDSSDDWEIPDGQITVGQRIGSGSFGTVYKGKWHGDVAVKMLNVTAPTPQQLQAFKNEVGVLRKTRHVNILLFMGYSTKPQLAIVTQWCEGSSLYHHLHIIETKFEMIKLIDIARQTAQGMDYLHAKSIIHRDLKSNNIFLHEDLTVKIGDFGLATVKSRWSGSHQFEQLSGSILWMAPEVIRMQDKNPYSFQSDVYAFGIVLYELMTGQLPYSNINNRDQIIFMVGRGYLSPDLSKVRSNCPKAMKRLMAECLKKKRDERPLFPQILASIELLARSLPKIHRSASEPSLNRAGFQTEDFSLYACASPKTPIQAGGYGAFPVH

[5] = molecular target: T2, Inhibitor of nuclear factor kappa-B kinase subunit beta (Homo sapiens, UniProt O14920); experiment: Inhibition of IKKbeta
T2 sequence (O14920 whole entry): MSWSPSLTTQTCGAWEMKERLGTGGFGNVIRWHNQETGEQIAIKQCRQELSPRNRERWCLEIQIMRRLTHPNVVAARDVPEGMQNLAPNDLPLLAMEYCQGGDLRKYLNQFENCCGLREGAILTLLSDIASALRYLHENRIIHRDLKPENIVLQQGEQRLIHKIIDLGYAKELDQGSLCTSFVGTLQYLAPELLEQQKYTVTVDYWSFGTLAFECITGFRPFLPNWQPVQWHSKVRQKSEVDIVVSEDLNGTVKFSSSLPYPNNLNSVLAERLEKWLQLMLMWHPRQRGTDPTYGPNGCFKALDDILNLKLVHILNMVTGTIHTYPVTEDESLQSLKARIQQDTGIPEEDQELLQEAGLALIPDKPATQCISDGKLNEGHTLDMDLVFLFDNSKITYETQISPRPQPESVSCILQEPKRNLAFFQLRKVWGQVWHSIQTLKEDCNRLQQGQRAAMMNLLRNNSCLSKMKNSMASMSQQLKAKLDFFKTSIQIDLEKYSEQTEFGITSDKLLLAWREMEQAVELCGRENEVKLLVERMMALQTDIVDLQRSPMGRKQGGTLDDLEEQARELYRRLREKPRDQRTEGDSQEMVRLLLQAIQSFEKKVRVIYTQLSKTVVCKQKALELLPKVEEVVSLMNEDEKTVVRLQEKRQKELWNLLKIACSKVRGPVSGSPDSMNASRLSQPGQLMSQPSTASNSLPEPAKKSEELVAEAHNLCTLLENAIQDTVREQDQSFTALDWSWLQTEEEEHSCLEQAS

[6] = molecular target: Protein kinase C theta type (Homo sapiens, UniProt Q04759); experiment: Inhibition of PKCtheta
Sequence of Protein kinase C theta type (Q04759 whole entry): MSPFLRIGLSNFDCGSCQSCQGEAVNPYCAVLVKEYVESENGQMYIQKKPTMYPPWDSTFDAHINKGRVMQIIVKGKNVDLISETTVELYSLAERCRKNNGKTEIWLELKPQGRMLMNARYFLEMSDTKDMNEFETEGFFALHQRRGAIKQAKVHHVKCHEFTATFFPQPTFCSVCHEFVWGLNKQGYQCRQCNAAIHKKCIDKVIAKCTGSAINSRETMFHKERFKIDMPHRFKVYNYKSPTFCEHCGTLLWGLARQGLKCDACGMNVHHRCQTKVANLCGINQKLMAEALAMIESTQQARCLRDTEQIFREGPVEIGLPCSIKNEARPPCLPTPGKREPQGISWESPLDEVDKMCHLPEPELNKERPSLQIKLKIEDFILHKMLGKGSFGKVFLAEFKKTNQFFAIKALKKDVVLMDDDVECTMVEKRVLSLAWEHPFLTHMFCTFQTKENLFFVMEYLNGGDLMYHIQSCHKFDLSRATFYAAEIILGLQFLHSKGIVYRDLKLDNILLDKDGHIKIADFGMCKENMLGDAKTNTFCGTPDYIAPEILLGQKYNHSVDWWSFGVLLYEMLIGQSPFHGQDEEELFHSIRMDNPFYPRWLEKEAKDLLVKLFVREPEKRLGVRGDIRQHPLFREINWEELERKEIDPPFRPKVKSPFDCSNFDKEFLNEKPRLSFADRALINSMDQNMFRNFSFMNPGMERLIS

[7] = molecular target: T3, Mitogen-activated protein kinase kinase kinase 6 (Homo sapiens, UniProt O95382); experiment: Inhibition of ASK2
T3 sequence (O95382 whole entry): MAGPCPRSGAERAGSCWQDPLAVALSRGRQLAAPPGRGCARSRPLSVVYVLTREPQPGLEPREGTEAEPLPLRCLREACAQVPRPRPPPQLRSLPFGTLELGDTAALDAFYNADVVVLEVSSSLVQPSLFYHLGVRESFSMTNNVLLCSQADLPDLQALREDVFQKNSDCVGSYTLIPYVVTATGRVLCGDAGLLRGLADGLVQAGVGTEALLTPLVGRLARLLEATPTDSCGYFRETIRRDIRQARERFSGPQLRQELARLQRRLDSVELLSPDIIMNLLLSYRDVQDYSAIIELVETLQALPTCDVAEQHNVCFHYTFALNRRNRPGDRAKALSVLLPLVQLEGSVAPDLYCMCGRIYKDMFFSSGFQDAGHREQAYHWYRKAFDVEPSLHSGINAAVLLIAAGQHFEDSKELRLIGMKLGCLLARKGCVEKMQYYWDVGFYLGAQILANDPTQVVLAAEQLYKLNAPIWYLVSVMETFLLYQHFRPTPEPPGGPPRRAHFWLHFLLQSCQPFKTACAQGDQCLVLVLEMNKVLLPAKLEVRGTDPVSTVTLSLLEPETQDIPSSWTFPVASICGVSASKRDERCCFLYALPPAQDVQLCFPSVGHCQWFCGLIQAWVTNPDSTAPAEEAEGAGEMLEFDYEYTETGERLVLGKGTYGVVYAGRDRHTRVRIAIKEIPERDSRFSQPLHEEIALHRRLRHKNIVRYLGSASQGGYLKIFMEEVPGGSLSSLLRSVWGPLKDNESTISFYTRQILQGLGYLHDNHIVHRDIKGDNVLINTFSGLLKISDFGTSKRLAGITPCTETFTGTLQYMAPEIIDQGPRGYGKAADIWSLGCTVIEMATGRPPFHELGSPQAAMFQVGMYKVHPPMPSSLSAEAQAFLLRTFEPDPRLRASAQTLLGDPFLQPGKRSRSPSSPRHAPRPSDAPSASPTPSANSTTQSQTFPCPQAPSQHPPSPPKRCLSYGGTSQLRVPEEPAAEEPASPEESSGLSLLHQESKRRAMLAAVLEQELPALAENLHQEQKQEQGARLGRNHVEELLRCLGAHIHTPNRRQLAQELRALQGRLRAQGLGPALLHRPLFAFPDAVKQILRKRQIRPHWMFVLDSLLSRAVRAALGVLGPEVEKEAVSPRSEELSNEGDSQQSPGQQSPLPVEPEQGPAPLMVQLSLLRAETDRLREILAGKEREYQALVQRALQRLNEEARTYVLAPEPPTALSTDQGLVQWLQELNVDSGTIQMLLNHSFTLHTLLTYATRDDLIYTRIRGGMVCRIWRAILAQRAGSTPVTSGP

[8] = molecular target: Mitogen-activated protein kinase 14 (Homo sapiens, UniProt Q16539); experiment: Inhibition of p38alpha
Sequence of Mitogen-activated protein kinase 14 (Q16539 whole entry): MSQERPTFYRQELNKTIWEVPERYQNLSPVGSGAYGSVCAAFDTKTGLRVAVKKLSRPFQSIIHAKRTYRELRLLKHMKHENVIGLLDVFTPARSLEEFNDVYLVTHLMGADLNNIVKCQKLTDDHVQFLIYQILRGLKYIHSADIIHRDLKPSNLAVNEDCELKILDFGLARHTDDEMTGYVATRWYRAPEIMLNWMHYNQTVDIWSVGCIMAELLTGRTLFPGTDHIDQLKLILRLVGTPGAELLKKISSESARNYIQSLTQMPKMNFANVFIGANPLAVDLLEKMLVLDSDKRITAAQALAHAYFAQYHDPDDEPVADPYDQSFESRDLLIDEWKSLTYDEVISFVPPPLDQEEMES

[9] = molecular target: Glycogen synthase kinase-3 beta (Homo sapiens, UniProt P49841); experiment: Inhibition of GSK3beta
Sequence of Glycogen synthase kinase-3 beta (P49841 whole entry): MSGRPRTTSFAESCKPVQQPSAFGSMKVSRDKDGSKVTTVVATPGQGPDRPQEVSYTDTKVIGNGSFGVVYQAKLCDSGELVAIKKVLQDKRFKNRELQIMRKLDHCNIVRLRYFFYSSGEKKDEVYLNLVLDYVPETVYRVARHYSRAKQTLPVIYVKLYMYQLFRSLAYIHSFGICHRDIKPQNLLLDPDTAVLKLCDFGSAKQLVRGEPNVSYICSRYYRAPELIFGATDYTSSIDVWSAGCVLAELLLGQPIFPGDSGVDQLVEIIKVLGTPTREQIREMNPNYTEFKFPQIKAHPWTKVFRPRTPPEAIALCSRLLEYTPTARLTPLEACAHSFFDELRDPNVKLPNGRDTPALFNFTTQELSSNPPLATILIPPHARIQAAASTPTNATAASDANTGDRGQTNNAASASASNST

[10] = molecular target: Mitogen-activated protein kinase 8 (Homo sapiens, UniProt P45983); experiment: Inhibition of JNK1
Sequence of Mitogen-activated protein kinase 8 (P45983 whole entry): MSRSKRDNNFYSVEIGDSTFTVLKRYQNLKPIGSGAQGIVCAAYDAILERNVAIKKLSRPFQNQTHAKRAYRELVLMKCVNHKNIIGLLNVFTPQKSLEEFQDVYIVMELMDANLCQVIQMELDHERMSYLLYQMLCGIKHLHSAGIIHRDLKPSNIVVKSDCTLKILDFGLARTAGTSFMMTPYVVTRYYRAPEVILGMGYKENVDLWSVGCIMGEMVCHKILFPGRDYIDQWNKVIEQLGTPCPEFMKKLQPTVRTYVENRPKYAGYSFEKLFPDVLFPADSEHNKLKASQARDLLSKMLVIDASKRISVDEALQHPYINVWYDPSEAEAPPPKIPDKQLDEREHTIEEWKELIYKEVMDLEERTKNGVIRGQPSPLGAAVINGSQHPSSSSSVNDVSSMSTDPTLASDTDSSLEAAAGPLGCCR

[11] = molecular target: Mitogen-activated protein kinase 3 (Homo sapiens, UniProt P27361); experiment: Inhibition of ERK1
Sequence of Mitogen-activated protein kinase 3 (P27361 whole entry): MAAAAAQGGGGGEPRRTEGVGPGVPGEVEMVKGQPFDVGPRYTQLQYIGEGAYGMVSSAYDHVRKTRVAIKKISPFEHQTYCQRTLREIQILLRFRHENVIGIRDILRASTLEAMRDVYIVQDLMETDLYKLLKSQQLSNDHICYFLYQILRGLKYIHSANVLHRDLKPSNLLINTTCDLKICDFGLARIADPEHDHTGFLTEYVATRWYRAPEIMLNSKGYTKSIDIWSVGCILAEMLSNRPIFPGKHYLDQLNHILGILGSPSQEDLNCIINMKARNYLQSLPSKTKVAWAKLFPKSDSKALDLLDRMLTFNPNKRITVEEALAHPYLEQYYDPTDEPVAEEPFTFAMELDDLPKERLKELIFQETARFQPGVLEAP

[12] = molecular target: Mitogen-activated protein kinase kinase kinase 1 (Homo sapiens, UniProt Q13233); experiment: Inhibition of MEKK1
Sequence of Mitogen-activated protein kinase kinase kinase 1 (Q13233 whole entry): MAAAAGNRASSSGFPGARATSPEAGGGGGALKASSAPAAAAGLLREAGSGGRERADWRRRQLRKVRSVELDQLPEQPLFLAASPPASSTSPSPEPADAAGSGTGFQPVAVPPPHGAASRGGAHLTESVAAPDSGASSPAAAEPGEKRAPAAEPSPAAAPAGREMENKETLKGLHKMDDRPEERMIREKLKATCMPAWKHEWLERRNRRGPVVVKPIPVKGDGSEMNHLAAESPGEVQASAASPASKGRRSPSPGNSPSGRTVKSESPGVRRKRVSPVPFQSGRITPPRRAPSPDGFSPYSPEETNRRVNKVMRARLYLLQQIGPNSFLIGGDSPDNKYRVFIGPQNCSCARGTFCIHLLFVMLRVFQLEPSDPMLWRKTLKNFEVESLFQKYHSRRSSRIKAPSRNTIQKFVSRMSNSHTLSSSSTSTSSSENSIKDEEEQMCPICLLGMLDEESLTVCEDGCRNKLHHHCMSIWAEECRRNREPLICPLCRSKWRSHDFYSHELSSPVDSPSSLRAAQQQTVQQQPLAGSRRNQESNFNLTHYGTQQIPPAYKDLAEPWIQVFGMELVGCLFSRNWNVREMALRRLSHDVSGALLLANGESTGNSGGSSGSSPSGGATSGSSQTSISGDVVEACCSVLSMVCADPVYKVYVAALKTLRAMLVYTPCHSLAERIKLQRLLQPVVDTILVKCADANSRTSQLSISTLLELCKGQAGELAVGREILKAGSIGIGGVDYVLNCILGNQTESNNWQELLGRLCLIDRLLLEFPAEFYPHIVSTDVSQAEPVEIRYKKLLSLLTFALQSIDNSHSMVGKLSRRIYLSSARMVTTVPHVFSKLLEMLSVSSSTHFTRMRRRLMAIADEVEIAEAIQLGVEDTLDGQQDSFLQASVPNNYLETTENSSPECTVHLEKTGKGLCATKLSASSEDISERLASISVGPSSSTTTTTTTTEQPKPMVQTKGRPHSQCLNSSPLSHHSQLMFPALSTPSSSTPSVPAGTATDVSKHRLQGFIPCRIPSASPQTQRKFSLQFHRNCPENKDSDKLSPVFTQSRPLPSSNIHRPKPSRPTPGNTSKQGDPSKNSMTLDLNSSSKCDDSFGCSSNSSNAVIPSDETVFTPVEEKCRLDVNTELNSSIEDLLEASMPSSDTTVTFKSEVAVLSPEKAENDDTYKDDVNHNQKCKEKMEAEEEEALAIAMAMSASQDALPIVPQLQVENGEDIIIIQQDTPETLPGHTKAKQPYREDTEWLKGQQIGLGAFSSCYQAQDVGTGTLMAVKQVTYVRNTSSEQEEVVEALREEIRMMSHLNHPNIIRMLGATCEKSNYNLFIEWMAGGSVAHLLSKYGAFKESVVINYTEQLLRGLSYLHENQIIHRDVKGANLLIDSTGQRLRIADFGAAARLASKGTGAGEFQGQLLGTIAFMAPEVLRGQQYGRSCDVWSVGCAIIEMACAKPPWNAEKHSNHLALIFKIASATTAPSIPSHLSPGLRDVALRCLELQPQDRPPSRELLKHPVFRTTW

## CC(C)(C)c1ccc(C(=O)Nc2cn3cc(-n4ccnc4)ccc3n2)cc1 [listing 1 of 3 here]
INS1 [1]
  inhibition: Active
INS1 [2]
  inhibition: Dose-dependent effect

## CC(C)(CO)c1ccc(C(=O)Nc2cn3cc(-n4ccnc4)ccc3n2)cc1
physchem
  logD: 1.62
[3]
  IC50: 32 nM

## CC(C)(C)c1ccc(C(=O)Nc2cn3cc(-c4cccnc4)ccc3n2)cc1
physchem
  logD: 3.6
[3]
  IC50: 21 nM

## CC(C)(C)c1ccc(C(=O)Nc2cn3cc(-n4cccc4)ccc3n2)cc1
[3]
  IC50: 30 nM

## CC(C)(C)c1ccc(C(=O)Nc2cn3cc(-n4ccnc4)ccc3n2)cc1 [listing 2 of 3 here]
physchem
  logD: 3.16

## CC(C)(O)c1ccc(C(=O)Nc2cn3cc(-n4ccnc4)ccc3n2)cc1
physchem
  logD: 1.27
[3]
  IC50: 70 nM

## Cc1ccc2nc(NC(=O)c3ccc(C(C)(C)C)cc3)cn2c1
physchem
  logD: 3.78
[3]
  IC50: 22 nM

## CC(C)(C)c1ccc(C(=O)Nc2cn3cc(Cl)ccc3n2)cc1
physchem
  logD: 4.04
[3]
  IC50: 16 nM

## CC(C)(C)c1ccc(C(=O)Nc2cn3cc(Br)ccc3n2)cc1
physchem
  logD: 4.17
[3]
  IC50: 21 nM

## CC(C)(C)c1ccc(C(=O)Nc2cn3cc(F)ccc3n2)cc1
physchem
  logD: 3.55
[3]
  IC50: 34 nM

## CC(C)(C)c1ccc(C(=O)Nc2cn3cc(-n4ccnc4)ccc3n2)cc1 [listing 3 of 3 here]
[4]
  IC50: > 10000 nM
[5]
  IC50: > 10000 nM
[6]
  IC50: > 10000 nM
[7]
  IC50: 510 nM
[8]
  IC50: > 10000 nM
[9]
  IC50: > 10000 nM
[10]
  IC50: > 10000 nM
[11]
  IC50: > 10000 nM
[12]
  IC50: > 10000 nM

## CNCc1ccc2nc(NC(=O)c3ccc(C(C)(C)C)cc3)cn2c1
physchem
  logD: 2.4
[3]
  IC50: 870 nM

## CC(C)(C)c1ccc(C(=O)Nc2cn3cc(-c4ccccc4)ccc3n2)cc1
physchem
  logD: 4.83
[3]
  IC50: 82 nM

## Cc1ccc2nc(NC(=O)c3ccc(C(C)(C)C)cc3)sc2c1
physchem
  logD: 5.08
[3]
  IC50: 260 nM

## CC(C)(C)c1ccc(C(=O)Nc2cn3cc(CO)ccc3n2)cc1
physchem
  logD: 2.83
[3]
  IC50: 129 nM

Source: ChEMBL document CHEMBL2203246, “Design and biological evaluation of imidazo[1,2-a]pyridines as novel and potent ASK1 inhibitors” (Bioorg Med Chem Lett, 2012)
